Experimental data reported in patent US11964986B1, “9-oxo-9,10-dihydro-6H-pyrano[3,2-b:4,5-b′]dipyridine-8-carboxylic acid derivatives” (REJUVERON TELOMERE THERAPEUTICS AG, priority 2023, dated 2024).
Converted amounts (≈) assume the structure as drawn. Read-outs that look alike come from different tables or passages of the source.

Tests used:
[1] = molecular target: T1, PAPD5 (Homo sapiens, UniProt Q8NDF8); assay: cell-based; parameters: endogenous in cells; host or cells: HepG2/2.2.15 PAPD7 knock-out cells (CRISPR/Cas9); details: for Fold sel. for PAPD5 over PAPD7: PAPD7 KO cells vs PAPD5 KO cells
Procedure: (§1) The hepatocarcinoma HepG2/2.2.15 cell line (hereafter referred to as wild type) was obtained from Millipore (SCC249) and HepG2/2.2.15 PAPD5 knock-out (PAPD5 KO) and PAPD7 knock-out (PAPD7 KO) cells were generated using CRISPR/Cas9 technology.
To this end, all compounds of the present invention were also tested in an ELISA on HepG2/2.2.15 PAPD5 and PAPD7 KO cell lines to determine the compounds' potency to inhibit PAPD5 and their selectivity for PAPD5 over PAPD7.
(§2) Cell seeding and addition of the compounds: On day −1, HepG2/2.2.15 cell lines were seeded in U-bottom 96-well plates (Fisher Scientific, 10777241) at a density of 1,5×10^4 cells/well in a final volume of 200 μL complemented DMEM/F12. On day 0, medium was aspirated and cells were washed once with PBS (300 μL/well). Then, PBS was replaced with complemented DMEM/F12 (200 μL/well). Using a Tecan-TE300e chemical dispenser, the compounds were added to the cells with 11 half-log incremental dilutions in dimethyl sulfoxide (DMSO) (Sigma-Aldrich, 276855) within the highest concentration equal to 25 μM (concentration range 1). DMSO was used as no-drug control, and the final DMSO concentration in all wells was 0.5%. […] On day 4, the 96-well plate was centrifuged for 5 min at 300 g to spin down cell debris. 100 μL/well of cell culture supernatant were collected and diluted 1:2 with 100 μL of complemented DMEM/F12 to perform the ELISA.
(§3) ELISA: Before starting, the “Hepatitis B surface antigen ELISA kit” (Abnova, KA0286) was equilibrated at room temperature (RT) for 1 h. […] The anti-HB plate was sealed using adhesive foil provided with the kit and incubated for 1 h at 37° C. […] After the last wash, the residual liquid was removed by turning the plate upside down and tapping on adsorbent paper. TMB substrate solutions A and B were mixed in equal volumes and 100 μL/well of this mixture were added to each well. The plate was covered with the supplied tray and incubated at RT for 20 min. During this time, a color develops in proportion to the amount of HBsAg bound to anti-HBs. After incubation, the reaction was stopped by adding 100 μL/well of 2N aqueous H2SO4 solution. The optical density of the developed color was read at 450 nm using a Cytation 5 instrument with reference wavelength at 620 nm.
(§4) CCK8 viability assay: Viability of HepG2/2.2.15 WT, PAPD5 KO and PAPD7 KO cell lines treated with the compounds was determined using the Cell Counting Kit-8 (CCK8, Sigma-Aldrich, 96992) following the manufacturer's instructions. […] During this time, WST-8 is reduced by dehydrogenases in cells to give a yellow-colored product (formazan), which is soluble in the tissue culture medium. The amount of the formazan dye generated by the activity of dehydrogenases in cells is directly proportional to the number of living cells. After 1 h incubation, the optical density of the developed color was read at 450 nm using a Cytation 5 instrument with the reference wavelength at 620 nm. CCK8 optical density values were used for normalization of the ELISA results.
To determine the IC50 values, the amount of HBsAg (optical density values of the ELISA) was corrected by the number of living cells (CCK8 optical density) per each well. Normalized HBsAg values were used to generate a dose-response curve with a non-linear regression model and applying the Levenberg-Marquardt algorithm.

[2] = test system: HBsAg secretion in HepG2/2.2.15 WT cells (combined effect of PAPD5 and PAPD7 inhibition)
Procedure: as §1
An ELISA was performed using a hepatocarcinoma HepG2/2.2.15 wild type (WT) cell line to assess the potential of the compounds of the present invention as treatments of chronic HBV infection.
as §2, §3, §4
To determine the IC50 values, the amount of HBsAg (optical density values of the ELISA) was corrected by the number of living cells (CCK8 optical density) per each well. Normalized HBsAg values were used to generate a dose-response curve with a non-linear regression model and applying the Levenberg-Marquardt algorithm. The percentage of inhibition was calculated relative to the untreated condition (DMSO CTRLs).

[3] = molecular target: PAPD7 (Homo sapiens, UniProt Q5XG87); assay: HBsAg ELISA in HepG2/2.2.15 PAPD5 KO cells (PAPD7 inhibitory activity); assay type: cell-based; details: Table 3, HBsAg secretion, 4 days, read-out: pIC50 PAPD7 (PAPD5 KO cells) (converted)
[4] = logD(pH 7.4); assay type: physicochemical
[5] = kinetic solubility assay at pH 6.5; assay type: physicochemical; details: for solubility kinetic: pH 6.5, kinetic from dmso stock
[6] = molecular target: T1, PAPD5; assay: Degree of PAPD5 target engagement calculated for test concentrations in assays using iPSCs; parameters: endogenous in cells
Source text: (§5) In the ELISA 10% plasma protein (p=0.1) is used, whereas the assays using iPSCs are run in a plasma protein-free medium.

[7] = Plasma protein binding (fraction unbound)
Source text: as §5

[8] = test system: TERC in patient-derived iPSCs; assay: TERC stability by RLM-RACE in patient-derived iPSCs; details: 1-week treatment, FIG. 2A
Procedure: For coating, one aliquot of Corning Matrigel hESC-qualified matrix (approximately 300 μL) was thawed on ice and diluted in 25 mL ice-cold DMEM/F-12. […] The coating solution was kept on ice and Matrigel was handled using ice-cold pipette tips. 6 mL of the coating solution were added to one 10 cm cell culture dish and spread by gentle rocking. The coated dishes were then incubated at RT for at least 30 min to let the matrix solidify. The coating solution was aspirated from the dishes and cells were seeded immediately. […] Cells were incubated shortly at 37° C. and the colonies were briefly disaggregated by gentle pipetting or by agitation. The single cell suspension was transferred in a canonical tube with cold 1× PBS and centrifuged at 300 g for 5 min to remove Accutase. Cell pellet was resuspended in an appropriate volume of complemented Essential E8 medium and seeded in a Matrigel-coated dish according to the split ratio.
The compounds were dissolved in DMSO at a 10 mM stock concentration and diluted in complemented Essential E8 medium at the reported concentrations (Table 6). […]
Samples were spun at 12000 g for 10 min at 4° C. […] The RNA concentration was measured using a Qubit HS RNA quantification kit (Thermo Fisher, Q32852). […]
DNA was stored overnight at −20° C. before loading on agarose gel. PCR products were quantified using a Qubit dsDNA BR quantification kit (Thermo Fisher, Q32850). […]

[9] = test system: telomere length in patient-derived iPSCs; assay: Telomere restriction fragment (TRF) analysis in patient-derived iPSCs; details: for telomere elongation: 4-week treatment, increasing concentrations, FIG. 2B
Procedure: Healthy donor- and patient-derived induced Pluripotent Stem Cells (iPSCs), described in Moon et al. 2015, were cultured in feeder-free condition using Matrigel hESC-qualified matrix (Corning, 354277) coated cell culture dishes. For coating, one aliquot of Corning Matrigel hESC-qualified matrix (approximately 300 μL) was thawed on ice and diluted in 25 mL ice-cold DMEM/F-12. […] The coating solution was kept on ice and Matrigel was handled using ice-cold pipette tips. 6 mL of the coating solution were added to one 10 cm cell culture dish and spread by gentle rocking. The coated dishes were then incubated at RT for at least 30 min to let the matrix solidify. The coating solution was aspirated from the dishes and cells were seeded immediately. […] Cells were incubated shortly at 37° C. and the colonies were briefly disaggregated by gentle pipetting or by agitation. The single cell suspension was transferred in a canonical tube with cold 1× PBS and centrifuged at 300 g for 5 min to remove Accutase. Cell pellet was resuspended in an appropriate volume of complemented Essential E8 medium and seeded in a Matrigel-coated dish according to the split ratio.
The scope of this assay is to isolate telomeric DNA from healthy donor- and patient-derived iPSCs and determine the average length of isolated telomeres.
The compounds were dissolved in DMSO at a 10 mM stock concentration and diluted in complemented Essential E8 medium at the reported concentrations (Table 6). For untreated samples (0 nM) DMSO only was added to the medium. Culture medium with the diluted compound was replaced daily, and cells were subcultured as described above.
To carry out the cellular assays, cells were cultured in the presence of PAPD5 inhibitors and collected at different time points. […] (2) At week 4 (Day 28), cells were harvested for DNA isolation to perform Telomere Restriction Fragment (TRF) analysis. […]
Genomic DNA extraction: At day 28 of exposure, 2×10^6 iPSCs per condition were pelleted and resuspended in 200 μl PBS. […] DNA quantification was performed using a Qubit dsDNA BR quantification kit. […]

[10] = test system: HBsAg; details: Table 4; effective concentration that achieved 50% inhibitory effect; from WO2019177937; cited from earlier work
[11] = Table 3, HepG2/2.2.15 PAPD7 KO cells, HBsAg secretion, 4 days, read-out: pIC50 PAPD5 (PAPD7 KO cells) (converted)
[12] = Table 5, PAPD7 KO cells, read-out: PIC50 PAPD5 (PAPD7 KO cells) (converted)
[13] = PAPD5 IC50 by ELISA, HepG2/2.2.15 PAPD7 KO cell line, 10% plasma protein, read-out: IC50ELISA
[14] = unbound IC50 in protein-free medium, IC50ELISA*fu,ELISA, read-out: IC50u

Sequence of PAPD7 (Q5XG87 whole entry): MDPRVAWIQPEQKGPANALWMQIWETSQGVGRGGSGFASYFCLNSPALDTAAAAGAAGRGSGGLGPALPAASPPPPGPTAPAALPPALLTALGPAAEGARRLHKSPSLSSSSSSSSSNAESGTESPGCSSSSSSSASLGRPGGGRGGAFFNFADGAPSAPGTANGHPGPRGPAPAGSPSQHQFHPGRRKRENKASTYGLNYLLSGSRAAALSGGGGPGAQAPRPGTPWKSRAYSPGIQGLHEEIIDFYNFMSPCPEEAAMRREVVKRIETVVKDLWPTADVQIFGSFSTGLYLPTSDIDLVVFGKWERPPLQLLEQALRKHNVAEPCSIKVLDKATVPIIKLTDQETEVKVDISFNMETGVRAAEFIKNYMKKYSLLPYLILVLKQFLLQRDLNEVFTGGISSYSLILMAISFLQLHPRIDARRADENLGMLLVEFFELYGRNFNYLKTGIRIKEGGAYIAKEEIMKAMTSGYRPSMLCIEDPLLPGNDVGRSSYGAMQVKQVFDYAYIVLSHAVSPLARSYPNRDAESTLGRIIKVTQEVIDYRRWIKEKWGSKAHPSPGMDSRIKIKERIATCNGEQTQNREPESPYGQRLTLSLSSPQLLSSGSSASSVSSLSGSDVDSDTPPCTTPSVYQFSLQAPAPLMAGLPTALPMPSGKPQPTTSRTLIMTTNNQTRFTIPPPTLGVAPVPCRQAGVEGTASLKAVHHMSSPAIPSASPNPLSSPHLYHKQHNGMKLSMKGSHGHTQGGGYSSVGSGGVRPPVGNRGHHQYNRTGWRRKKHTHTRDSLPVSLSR
T1 sequence (Q8NDF8 whole entry): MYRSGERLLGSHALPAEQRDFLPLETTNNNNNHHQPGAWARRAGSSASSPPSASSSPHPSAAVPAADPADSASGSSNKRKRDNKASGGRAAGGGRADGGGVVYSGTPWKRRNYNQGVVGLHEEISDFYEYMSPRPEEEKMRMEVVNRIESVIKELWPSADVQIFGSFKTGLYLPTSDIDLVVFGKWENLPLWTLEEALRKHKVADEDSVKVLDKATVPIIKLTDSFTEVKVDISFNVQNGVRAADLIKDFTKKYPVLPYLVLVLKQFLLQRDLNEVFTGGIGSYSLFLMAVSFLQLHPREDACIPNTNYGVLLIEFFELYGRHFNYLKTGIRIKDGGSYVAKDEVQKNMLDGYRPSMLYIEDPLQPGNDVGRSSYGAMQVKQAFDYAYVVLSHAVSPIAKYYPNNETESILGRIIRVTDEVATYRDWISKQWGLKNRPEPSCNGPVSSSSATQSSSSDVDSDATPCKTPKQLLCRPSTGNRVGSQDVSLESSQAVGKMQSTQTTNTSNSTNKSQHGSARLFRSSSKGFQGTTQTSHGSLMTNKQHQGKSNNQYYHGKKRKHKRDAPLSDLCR

Compound: COCCCOc1cc2c(nc1OC)-c1[nH]c(=O)c(C(=O)O)cc1C(C(C)C)O2 (racemic) [Example 501, (RS)-6-Isopropyl-2-methoxy-3-(3-methoxypropoxy)-9-oxo-9,10-dihydro-6H-pyrano[3,2-b:4,5-b′]dipyridine-8-carboxylic acid]
- IC50 [1, 11]: 6.31 nM
- Fold sel. for PAPD5 over PAPD7 ([1]; Table 3): 7.1 Fold
- IC50 [2]: 7.94 nM
- IC50 [3]: 39.8 nM

Compound: COCCCOc1cc2c(nc1OC)-c1c(cc(C(=O)O)c(=O)n1C)C(C(C)C)O2 (racemic) [Example 502, (RS)-6-Isopropyl-2-methoxy-3-(3-methoxypropoxy)-10-methyl-9-oxo-9,10-dihydro-6H-pyrano[3,2-b:4,5-b′]dipyridine-8-carboxylic acid]
- IC50 [2]: 6.31 nM
- IC50 [3]: 12.6 nM

Compound: CCn1c2c(cc(C(=O)O)c1=O)C(C(C)C)Oc1cc(OCCCOC)c(OC)nc1-2 (racemic) [Example 503, (RS)-10-Ethyl-6-isopropyl-2-methoxy-3-(3-methoxypropoxy)-9-oxo-9,10-dihydro-6H-pyrano[3,2-b:4,5-b′]dipyridine-8-carboxylic acid]
- IC50 [1, 11]: 1 nM
- Fold sel. for PAPD5 over PAPD7 ([1]; Table 3): 5.9 Fold
- IC50 [2]: 1.26 nM
- IC50 [3]: 5.01 nM

Compound: COCCCOc1cc2c(nc1OC)-c1c(cc(C(=O)O)c(=O)n1C1CC1)C(C(C)C)O2 (racemic) [Example 504, (RS)-10-Cyclopropyl-6-isopropyl-2-methoxy-3-(3-methoxypropoxy)-9-oxo-9,10-dihydro-6H-pyrano[3,2-b:4,5-b′]dipyridine-8-carboxylic acid]
- IC50 [1, 11]: 0.631 nM
- Fold sel. for PAPD5 over PAPD7 ([1]; Table 3): 4.8 Fold
- IC50 [2]: 0.501 nM
- IC50 [3]: 2.51 nM

Compound: COCCCOc1cc2c(nc1OC)-c1[nH]c(=O)c(C(=O)O)cc1C(C(C)(C)C)O2 (racemic) [Example 505, (RS)-6-(tert-Butyl)-2-methoxy-3-(3-methoxypropoxy)-9-oxo-9,10-dihydro-6H-pyrano[3,2-b:4,5-b′]dipyridine-8-carboxylic acid]
- logD [4]: 1.1
- IC50 [1, 11]: 2 nM
- Fold sel. for PAPD5 over PAPD7 ([1]; Table 3): 4.9 Fold
- IC50 [1, 12]: 2 nM
- IC50 [2]: 2 nM
- fold more soluble than example 701 ([5]; kinetic solubility assay at pH 6.5): 2.6 fold
- solubility kinetic [5]: 484 µM (≈ 203 µg/mL)
- IC50 [3]: 10 nM

Compound: COCCCOc1cc2c(nc1OC)-c1c(cc(C(=O)O)c(=O)n1C1CC1)C(C(C)(C)C)O2 (racemic) [Example 506, (RS)-6-(tert-Butyl)-10-cyclopropyl-2-methoxy-3-(3-methoxypropoxy)-9-oxo-9,10-dihydro-6H-pyrano[3,2-b:4,5-b′]dipyridine-8-carboxylic acid]
- % Target engagement (X) ([6]; test conc. 0.1 nM): 54%
- % Target engagement (X) ([6]; test conc. 0.5 nM): 86%
- % Target engagement (X) ([6]; test conc. 2.5 nM): 97%
- fraction unbound [7]: 0.347
- fraction unbound ([7]; fu, ELISA, fraction unbound in ELISA, calculated with p = 0.1): 0.84
- levels of the mature and stable form of TERC [8]: restores the steady-state and physiological levels of the mature and stable form of TERC
- IC50 [1, 13]: 0.0847 nM
- Fold sel. for PAPD5 over PAPD7 ([1]; Table 3): 6.1 Fold
- IC50 [1, 12]: 0.0794 nM
- IC50 [1, 14]: 0.07 nM
- telomere length after elongation ([9]; 0.5 nM, 4 weeks of treatment): up to 8 kb
- telomere elongation [9]: dose-dependently effects telomere elongation
- IC50 [2]: 0.2 nM
- IC50 [3]: 0.501 nM

Compound: COCCCOc1cc2c(nc1C1CC1)-c1[nH]c(=O)c(C(=O)O)cc1C(C(C)(C)C)O2 (racemic) [Example 507, (RS)-6-(tert-Butyl)-2-cyclopropyl-3-(3-methoxypropoxy)-9-oxo-9,10-dihydro-6H-pyrano[3,2-b:4,5-b′]dipyridine-8-carboxylic acid]
- IC50 [1, 11]: 0.398 nM
- Fold sel. for PAPD5 over PAPD7 ([1]; Table 3): 1.8 Fold
- IC50 [2]: 0.794 nM
- IC50 [3]: 0.631 nM

Compound: COCCCOc1cc2c(nc1C1CC1)-c1c(cc(C(=O)O)c(=O)n1C1CC1)C(C(C)(C)C)O2 (racemic) [Example 508, (RS)-6-(tert-butyl)-2,10-dicyclopropyl-3-(3-methoxypropoxy)-9-oxo-9,10-dihydro-6H-pyrano[3,2-b:4,5-b′]dipyridine-8-carboxylic acid]
- IC50 [1, 11]: 0.1 nM
- Fold sel. for PAPD5 over PAPD7 ([1]; Table 3): 1.0 Fold
- IC50 [2]: 0.0631 nM
- IC50 [3]: 0.1 nM

Compound: COCCCOc1cc2c(nc1OC)-c1c(cc(C(=O)O)c(=O)n1CCO)C(C(C)C)O2 (racemic) [Example 510, (RS)-10-(2-Hydroxyethyl)-6-isopropyl-2-methoxy-3-(3-methoxypropoxy)-9-oxo-9,10-dihydro-6H-pyrano[3,2-b:4,5-b′]dipyridine-8-carboxylic acid]
- IC50 [1, 11]: 5.01 nM
- Fold sel. for PAPD5 over PAPD7 ([1]; Table 3): 6.4 Fold
- IC50 [2]: 15.8 nM
- IC50 [3]: 31.6 nM

Compound: COCCCOc1cc2c(nc1OC)-c1c(cc(C(=O)O)c(=O)n1CC(F)F)C(C(C)C)O2 (racemic) [Example 511, (RS)-10-(2,2-Difluoroethyl)-6-isopropyl-2-methoxy-3-(3-methoxypropoxy)-9-oxo-9,10-dihydro-6H-pyrano[3,2-b:4,5-b′]dipyridine-8-carboxylic acid]
- IC50 [1, 11]: 0.794 nM
- Fold sel. for PAPD5 over PAPD7 ([1]; Table 3): 6.9 Fold
- IC50 [2]: 1.26 nM
- IC50 [3]: 5.01 nM

Compound: COCCCOc1cc2c(nc1OC)-c1[nH]c(=O)c(C(=O)O)cc1C(C(C)(C)C)C2 (racemic) [Example 701, (RS)-5-(tert-Butyl)-9-methoxy-8-(3-methoxypropoxy)-2-oxo-1,2,5,6-tetrahydro-1,10-phenanthroline-3-carboxylic acid, reference compound]
- logD [4]: 1.4
- solubility kinetic [5]: 186 µM (≈ 77.3 µg/mL)

Compound: COCCCOc1cc2c(nc1OC)-c1c(cc(C(=O)O)c(=O)n1C1CC1)C(C(C)(C)C)C2 (racemic) [Example 702, (RS)-5-(tert-Butyl)-1-cyclopropyl-9-methoxy-8-(3-methoxypropoxy)-2-oxo-1,2,5,6-tetrahydro-1,10-phenanthroline-3-carboxylic acid, reference compound]
- IC50 [1, 12]: 3.16 nM
- IC50 [2]: 2.51 nM

Compound: COCCCOc1cc2c(cc1OC)-c1[nH]c(=O)c(C(=O)O)cc1C(C(C)(C)C)O2 (racemic) [Example 801, (RS)-5-(tert-Butyl)-9-methoxy-8-(3-methoxypropoxy)-2-oxo-1,5-dihydro-2H-chromeno[4,3-b]pyridine-3-carboxylic acid, reference compound]
- IC50 [1, 12]: 50.1 nM
- IC50 [2]: 39.8 nM

Compound: COCCCOc1cc2c(cc1OC)-c1c(cc(C(=O)O)c(=O)n1C1CC1)C(C(C)(C)C)O2 (racemic) [Example 802, (RS)-5-(tert-Butyl)-1-cyclopropyl-9-methoxy-8-(3-methoxypropoxy)-2-oxo-1,5-dihydro-2H-chromeno[4,3-b]pyridine-3-carboxylic acid, reference compound]
- IC50 [2]: 1 nM

Compound: COCCCOc1cc2c(nc1OC)-c1[nH]c(=O)c(C(=O)O)cc1C1(CCCC1)O2 [Example 509, 2′-Methoxy-3′-(3-methoxypropoxy)-9′-oxo-9′,10′-dihydrospiro[cyclopentane-1,6′-pyrano[3,2-b:4,5-b′]dipyridine]-8′-carboxylic acid]
- IC50 [1, 11]: 31.6 nM
- Fold sel. for PAPD5 over PAPD7 ([1]; Table 3): 10.4 Fold
- IC50 [2]: 25.1 nM
- IC50 [3]: 316 nM

Compound: COCCCOc1cc2c(cc1OC)-c1cc(=O)c(C(=O)O)cn1[C@H](C(C)C)C2 [RG7834]
- % Target engagement (X) ([6]; test conc. 0.3 nM): 16%
- % Target engagement (X) ([6]; test conc. 1 nM): 38%
- % Target engagement (X) ([6]; test conc. 3 nM): 65%
- % Target engagement (X) ([6]; test conc. 10 nM): 86%
- % Target engagement (X) ([6]; test conc. 30 nM): 95%
- levels of the mature and stable form of TERC [8]: restores the steady-state and physiological levels of the mature and stable form of TERC
- fu, plasma: 0.328
- fu, ELISA (plasma): 0.83
- IC50 [1, 13]: 1.64 nM
- IC50 [1, 14]: 1.35 nM
- telomere elongation [9]: dose-dependently effects telomere elongation

Compound: (RS)-6-Isopropyl-2-methoxy-3-(3-methoxypropoxy)-9-oxo-9,10-dihydro-6H-pyrano[3,2-b:4,5-b′]dipyridine-8-carboxylic acid [Example 501]
- EC50 [10]: 94 nM
